# Assay results: patent US20210309657A1, “TRICYCLIC COMPOUNDS FOR THE TREATMENT AND PROPHYLAXIS OF BACTERIAL INFECTION” (Hoffmann-La Roche Inc., priority 2018, published 2021)
# Read-outs that look alike come from different tables or passages of the source.
# Assays:
# [1] = Lyophilisation solubility assay (LYSA); format: physicochemical; settings: thermodynamic from solid
# Method: The solubility of compounds of present invention was assessed by LYSA assay. Samples were prepared in duplicate from 10 mM DMSO stock solutions ([…]) diluted in 30 μL pure DMSO. After evaporation of DMSO with a centrifugal vacuum evaporator, the residue was dissolved in 0.05 M phosphate buffer (150 μL, pH 6.5), which was stirred for one hour and shook for two hours. After one night, the solution was filtered using a microtiter filter plate. Then the filtrate and its 1/10 dilution were analyzed by HPLC-UV. In addition, a four-point calibration curve was prepared from the 10 mM stock solutions and used for the solubility determination of the compounds.
# [2] = test system: S. aureus (ATCC29213); test: 50% growth inhibitory concentration (IC50) determination assay, S. aureus; format: cell-based; settings: Staphylococcus aureus, growth inhibition, Iso-Sensitest broth, OD 600 nm over 16h, <0.098 = the detection limit
# Method: (§1) The in vitro antimicrobial activity of the compounds against S. aureus (ATCC29213), K. pneumoniae (ATCC10031), and A. baumannii (ATCC17978), was determined according to the following procedure: The assay used a 10-points Iso-Sensitest broth medium to measure quantitatively the in vitro activity of the compounds against S. aureus ATCC29213, K. pneumoniae ATCC 10031, and A. baumannii ATCC17978. Stock compounds in DMSO were serially two-fold diluted (range from 50 to 0.097 μM final concentration) in 384 wells microtiter plates and inoculated with 49 μL the bacterial suspension in Iso-Sensitest broth medium to have a final cell concentration of ˜5×10^5 CFU/mL in a final volume/well of 50 μL/well. Microtiter plates were incubated at 35±2° C. Bacterial cell growth was determined with the measurement of optical density at λ=600 nm each 20 minutes over a time course of 16h. Growth inhibition was calculated during the logarithmic growth of the bacterial cells with determination of the concentration inhibiting 50% (IC50) of the growth. Compounds of the present invention were tested for their concentration inhibiting 50% (IC50). The data of IC50 over S. aureus (ATCC29213), K. pneumoniae (ATCC10031), and A. baumannii (ATCC17978) are illustrated in Table 4.
# [3] = test system: A. baumannii (ATCC17978); test: 50% growth inhibitory concentration (IC50) determination assay, A. baumannii; format: cell-based; settings: Acinetobacter baumannii, growth inhibition, Iso-Sensitest broth, OD 600 nm over 16h, <0.098 = the detection limit
# Method: as §1
# [4] = test system: K. pneumoniae (ATCC10031); test: 50% growth inhibitory concentration (IC50) determination assay, K. pneumoniae; format: cell-based; settings: Klebsiella pneumoniae, growth inhibition, Iso-Sensitest broth, OD 600 nm over 16h, <0.098 = the detection limit
# Method: as §1
# [5] = aqueous buffer, 0.05 M phosphate buffer, pH 6.5, HPLC-UV, <1.0 = the detection limit, read-out: Lysa
SMILES,"solubility thermodynamic [1, 5] [µg/mL]",IC50 [2] [nM],IC50 [3] [nM],IC50 [4] [nM],"solubility thermodynamic ([1]; pH 6.5, aqueous buffer) [µg/mL]"
"CNc1cc(F)c(F)c2c1[nH]c1ncc(-c3cncc(C#N)c3)c(N3CCC4(C[C@@H]4N)C3)c12 (stereo in doubt) [Example 1.29, 5-[4-[Trans-2-amino-5-azaspiro[2.4]heptan-5-yl]-5,6-difluoro-8-(methylamino)-9H-pyrido[2,3-b]indol-3-yl]pyridine-3-carbonitrile]",16,1240,100,,
"CNc1cc(F)c(F)c2c1[nH]c1ncc(-c3cncc(C#N)c3)c(N3CCC4(CCC4N)C3)c12 (stereo not drawn) [Example 1.49, 5-(4-(1-Amino-6-azaspiro[3.4]octan-6-yl)-5,6-difluoro-8-(methylamino)-9H-pyrido[2,3-b]indol-3-yl)nicotinonitrile]",,1320,143,< 98,
"CCNc1cc(F)cc2c1[nH]c1ncc(-c3cncc(C#N)c3)c(N3CCCC3CN)c12 (stereo not drawn) [Example 1.06, 5-[4-[2-(Aminomethyl)pyrrolidin-1-yl]-8-(ethylamino)-6-fluoro-9H-pyrido[2,3-b]indol-3-yl]pyridine-3-carbonitrile]",> 625,,,,
"CNc1cc(F)c(F)c2c1[nH]c1ncc(-c3cnc4ccnn4c3)c(N3CC[C@H]4CN(C)C[C@H]43)c12 (relative stereo) [Example 1.50, 4-[Cis-5-methyl-2,3,3a,4,6,6a-hexahydropyrrolo[2,3-c]pyrrol-1-yl]-5,6-difluoro-N-methyl-3-pyrazolo[1,5-a]pyrimidin-6-yl-9H-pyrido[2,3-b]indol-8-amine]",,369,< 98,< 98,
"CNc1cc(F)c(F)c2c1[nH]c1ncc(-c3cncc(C#N)c3)c(N3C4CNCC3C4)c12 [Example 1.58, 5-(4-(3,6-Diazabicyclo[3.1.1]heptan-6-yl)-5,6-difluoro-8-(methylamino)-9H-pyrido[2,3-b]indol-3-yl)nicotinonitrile]",,231,182,,320
"CCNc1cc(F)cc2c1[nH]c1ncc(-c3cnc(C4(C(=O)O)CC4)nc3)c(N(C)C)c12 [Example 2.01, 1-[5-[4-(Dimethylamino)-8-(ethylamino)-6-fluoro-9H-pyrido[2,3-b]indol-3-yl]pyrimidin-2-yl]cyclopropanecarboxylic acid]",129,,,,
"CNc1cc(F)c(F)c2c1[nH]c1ncc(-c3cc[nH]c(=O)c3)c(N(C)C)c12 [Example 1.51, 4-[4-(Dimethylamino)-5,6-difluoro-8-(methylamino)-9H-pyrido[2,3-b]indol-3-yl]-1H-pyridin-2-one]",,1040,< 98,< 98,
"CNc1cc(F)c(F)c2c1[nH]c1ncc(-c3cnc4ccnn4c3)c(N(C)C)c12 [Example 1.62, 5,6-Difluoro-N4,N4,N8-trimethyl-3-pyrazolo[1,5-a]pyrimidin-6-yl-9H-pyrido[2,3-b]indole-4,8-diamine]",,1380,< 98,238,
"CNc1cc(F)c(F)c2c1[nH]c1ncc(-c3cnc(OC)nc3)c(N3CCCC3CN)c12 (stereo not drawn) [Example 1.37, 4-[2-(Aminomethyl)pyrrolidin-1-yl]-5,6-difluoro-3-(2-methoxypyrimidin-5-yl)-N-methyl-9H-pyrido[2,3-b]indol-8-amine]",545,,,,
"CNc1cc(F)c(F)c2c1[nH]c1ncc(-c3cnc(OC)nc3)c(N3CCC(C)(CN)C3)c12 (stereo not drawn) [Example 1.36, 4-[3-(Aminomethyl)-3-methyl-pyrrolidin-1-yl]-5,6-difluoro-3-(2-methoxypyrimidin-5-yl)-N-methyl-9H-pyrido[2,3-b]indol-8-amine]",140,,,,
"CNc1cc(F)cc2c1[nH]c1ncc(-c3cnc(OC)nc3)c(N3CC(CN)C(F)(F)C3)c12 (stereo not drawn) [Example 3.02, 4-[4-(aminomethyl)-3,3-difluoro-pyrrolidin-1-yl]-6-fluoro-3-(2-methoxypyrimidin-5-yl)-N-methyl-9H-pyrido[2,3-b]indol-8-amine]",196,,,,
"CNc1cc(F)c(F)c2c1[nH]c1ncc(-c3cnc(OC)nc3)c(N3CCOC(CN)C3)c12 (stereo not drawn) [Example 1.33, 4-[2-(Aminomethyl)morpholin-4-yl]-5,6-difluoro-3-(2-methoxypyrimidin-5-yl)-N-methyl-9H-pyrido[2,3-b]indol-8-amine]",475,,,,
"CNc1cc(F)cc2c1[nH]c1ncc(-c3cncc(C#N)c3)c(N3CC[C@@H](N)C3)c12 [Example 1.01, 5-[4-[(3R)-3-Aminopyrrolidin-1-yl]-6-fluoro-8-(methylamino)-9H-pyrido[2,3-b]indol-3-yl]pyridine-3-carbonitrile]",59,,,,
"CNc1cc(F)c(F)c2c1[nH]c1ncc(-c3cncc(C#N)c3)c(N3CCCC(CN)C3)c12 (stereo not drawn) [Example 1.21, 5-[4-[3-(Aminomethyl)-1-piperidyl]-5,6-difluoro-8-(methylamino)-9H-pyrido[2,3-b]indol-3-yl]pyridine-3-carbonitrile]",44,,,,
"CCNc1cc(Cl)cc2c1[nH]c1ncc(-c3cncc(C#N)c3)c(N3CCC(N)C3)c12 (stereo not drawn) [Example 1.03, 5-[4-(3-Aminopyrrolidin-1-yl)-6-chloro-8-(ethylamino)-9H-pyrido[2,3-b]indol-3-yl]pyridine-3-carbonitrile]",32.7,,,,
"CCNc1cc(F)cc2c1[nH]c1ncc(-c3cncc(C#N)c3)c(N3CCC(F)(CN)C3)c12 (stereo not drawn) [Example 1.10, 5-[4-[3-(Aminomethyl)-3-fluoro-pyrrolidin-1-yl]-8-(ethylamino)-6-fluoro-9H-pyrido[2,3-b]indol-3-yl]pyridine-3-carbonitrile]",,312,< 98,< 98,
"CNc1cc(F)cc2c1[nH]c1ncc(-c3cncc(C#N)c3)c(N3C4CNCC3C4)c12 [Example 1.60, 5-(4-(3,6-Diazabicyclo[3.1.1]heptan-6-yl)-6-fluoro-8-(methylamino)-9H-pyrido[2,3-b]indol-3-yl)nicotinonitrile]",,842,,,53
"CNc1cc(F)c(F)c2c1[nH]c1ncc(-c3cncc(C#N)c3)c(N3CCC[C@@H](CN)C3)c12 [Example 1.40, 5-[4-[(3S)-3-(Aminomethyl)-1-piperidyl]-5,6-difluoro-8-(methylamino)-9H-pyrido[2,3-b]indol-3-yl]pyridine-3-carbonitrile]",49,,,,
"CNc1cc(F)c(F)c2c1[nH]c1ncc(-c3cncc(C#N)c3)c(N3CCCC3CN)c12 (stereo not drawn) [Example 1.38, 5-[4-[2-(Aminomethyl)pyrrolidin-1-yl]-5,6-difluoro-8-(methylamino)-9H-pyrido[2,3-b]indol-3-yl]pyridine-3-carbonitrile]",> 610,,,,
"CNc1cc(F)c(F)c2c1[nH]c1ncc(-c3cnc(OC)nc3)c(N3CCC[C@@H](CN)C3)c12 [Example 1.25, 4-[(3S)-3-(Aminomethyl)-1-piperidyl]-5,6-difluoro-3-(2-methoxypyrimidin-5-yl)-N-methyl-9H-pyrido[2,3-b]indol-8-amine]",194,,,,
"CNc1cc(F)c(F)c2c1[nH]c1ncc(-c3cncc(C#N)c3)c(N3CC4CC(C3)N4)c12 [Example 1.44, 5-(4-(3,6-Diazabicyclo[3.1.1]heptan-3-yl)-5,6-difluoro-8-(methylamino)-9H-pyrido[2,3-b]indol-3-yl)nicotinonitrile]",,,,,270
"CNc1cc(F)cc2c1[nH]c1ncc(-c3cncc(C#N)c3)c(N3CCC(F)(CN)C3)c12 (stereo not drawn) [Example 1.23, 5-[4-[3-(Aminomethyl)-3-fluoro-pyrrolidin-1-yl]-6-fluoro-8-(methylamino)-9H-pyrido[2,3-b]indol-3-yl]pyridine-3-carbonitrile]",30,,,,
"CCNc1cc(F)c(C)c2c1[nH]c1ncc(-c3cncc(C#N)c3)c(N3CCC(CN)C3)c12 (stereo not drawn) [Example 1.45, 5-(4-(3-(Aminomethyl)pyrrolidin-1-yl)-8-(ethylamino)-6-fluoro-5-methyl-9H-pyrido[2,3-b]indol-3-yl)nicotinonitrile]",,992,528,172,
"CNc1cc(F)c(F)c2c1[nH]c1ncc(-c3cncc(C#N)c3)c(N3CCC4(C[C@H]4N)C3)c12 (stereo in doubt) [Example 1.30, 5-[4-[Cis-2-amino-5-azaspiro[2.4]heptan-5-yl]-5,6-difluoro-8-(methylamino)-9H-pyrido[2,3-b]indol-3-yl]pyridine-3-carbonitrile]",,1010,< 98,,
